Measured values as given in the NIST ThermoML archive (doi:10.1016/j.fluid.2016.02.011).

Assays:
[1] = refractive index (Na D-line) (dimensionless); conditions: 100 kPa, Liquid, minimum deviations angle
[2] = refractive index (Na D-line) (dimensionless); xn = mol fraction of the nth substance listed; conditions: 100 kPa, Liquid, minimum deviations angle, x1 = 1

CCCCCC[n+]1ccn(C)c1.O=S(=O)([N-]S(=O)(=O)C(F)(F)F)C(F)(F)F
[1]
Conditions	refractive index
282.99 K	1.4329
284.26 K	1.4324
285.8 K	1.432
286.91 K	1.4317
288.05 K	1.4313
289.17 K	1.431
290.22 K	1.4307
291.28 K	1.4304
292.38 K	1.4301
293.39 K	1.4298

CCCCCC[n+]1ccn(C)c1.O=S(=O)([N-]S(=O)(=O)C(F)(F)F)C(F)(F)F + Brc1ccccc1
[2]
Conditions	refractive index
282.99 K	1.4329
284.26 K	1.4324
285.8 K	1.432
286.91 K	1.4317
288.05 K	1.4313
289.17 K	1.431
290.22 K	1.4307
291.28 K	1.4304
292.38 K	1.4301
293.39 K	1.4298

Brc1ccccc1 [bromobenzene]
[1]
Conditions	refractive index
283 K	1.5612
284.4 K	1.5605
285.75 K	1.5598
286.96 K	1.5591
287.98 K	1.5585
288.99 K	1.558
290.11 K	1.5574
291.22 K	1.5568
292.32 K	1.5563
293.32 K	1.5557
